# Data from paper PMC12040169 (PLOS Biology, 2025).
# Assay: in vitro
# Details: human, hela cells, % viability
SMILES,"viability at 28.5 h, 10 µM [%]","viability at 28.5 h, 10 µM (bulk resorufin, single well) [%]"
N#C/C(=C\c1ccc(N2CCOCC2)cc1)c1nc2ncc(Br)cc2[nH]1 [CBK266294],89.4,
N#C/C(=C\c1cn(-c2ccccc2)nc1-c1cccc(S(=O)(=O)N2CCCC2)c1)c1nc2ccccc2c(=O)[nH]1 [CBK266296],91.9,
Cc1cccc(OCC(=O)NC(=S)Nc2ccccc2N2CCCCC2)c1C [CBK266298],105,
CC(Oc1ccccc1)c1nnc(SCC(=O)Nc2ccc(Br)c(Cl)c2)n1C (stereo not drawn) [CBK266299],113,
Cc1nnc(SCc2nnnn2-c2ccccc2)nc1O [CBK266302],101,
COc1nc(NCCc2ccc(OC)c(OC)c2)nc(OC)n1 [CBK266304],94.4,
O=C1NC(=O)C(CCc2ccncc2)(Cc2ccc3c(c2)OCO3)C(=O)N1CCc1ccccc1 (stereo not drawn) [CBK266307],,105
Cc1cc2oc(C(=O)Nc3nc(-c4ccc(S(=O)(=O)N5CCCC5)cc4)cs3)c(C)c2cc1C [CBK266309],89.5,
Cc1ccc(S(=O)(=O)N2Cc3ccccc3CC2C(=O)Nc2sc3c(c2C#N)CCCC3)cc1 (stereo not drawn) [CBK266313],97.9,
CC1CCN(S(=O)(=O)c2ccc3c(c2)oc(=O)c2cc(S(=O)(=O)N4CCC(C)CC4)ccc23)CC1 [CBK266314],100,
COc1cc(C(=O)N(Cc2ccco2)c2ccc(O)cc2)cc(OC)c1OC [CBK266315],102,
COc1cccc(C(=O)Nc2ccc(NC(=O)C3CC=CCC3C(=O)O)cc2)c1 (stereo not drawn) [CBK266316],107,
Cc1cc(C)nc(NC(=N)NCCc2c[nH]c3ccccc23)n1 [CBK266321],70.2,
CCOc1ccccc1Cn1c2ccccc2c2nc3ccccc3nc21 [CBK266323],101,
COC(=O)c1ccccc1NC(=O)CSc1nnc(-c2ccncc2)[nH]1 [CBK266324],96.4,
O=C(CSc1nnc(-c2cccnc2)o1)c1ccc(Oc2ccccc2)cc1 [CBK266327],88.1,
OCCCNC(c1ccccc1)c1ccc(O)cc1 (stereo not drawn) [CBK266329],97.2,
O=C(NCC1CCCO1)c1ccc(NC(=O)C2CC=CCC2C(=O)O)cc1 (stereo not drawn) [CBK266335],95,
N=c1n(CCN2CCCCC2)c2ccccc2n1CC(O)COc1ccc(Cl)cc1Cl (stereo not drawn) [CBK266336C],31,
COC(=O)c1ccccc1NC(=O)CSc1nnc(-c2ccccc2)[nH]1 [CBK266338],96.7,
Cc1[nH]c2ccccc2c1C(=O)CSc1nc2ccccc2o1 [CBK266339],100,

SMILES,"viability at 28.5 h, 10 µM [%]","viability at 28.5 h, 10 µM (bulk resorufin, single well) [%]"
O=C(CSc1ncccc1C(=O)O)Nc1ccc(Oc2ccccc2)cc1 [CBK266340],106,
CCOc1ccc(S(=O)(=O)N2CCN(S(=O)(=O)c3cccc([N+](=O)[O-])c3)CC2)cc1 [CBK266341],95.9,
O=[N+]([O-])c1ccc(NCCNc2nc3ccccc3nc2N2CCOCC2)cc1 [CBK266342],107,
COc1ccc2c(c1)c(=O)oc1cc(OCC(=O)N3CCc4ccccc4C3)ccc12 [CBK266346],110,
Cc1ccnc(SCC(=O)Nc2sc3c(c2C(=O)Nc2ccccc2)CCCC3)n1 [CBK266348],106,
CC(=O)Nc1ccc(C(=O)CSc2nnc(-c3ccncc3)o2)cc1 [CBK266349],105,
Cc1ccc(S(=O)(=O)NC(C)(C)CSc2nnc(N)s2)cc1 [CBK266350],97.1,
Cc1cc2oc(C(=O)Nc3sc4c(c3C(=O)NC3CCS(=O)(=O)C3)CCC(C)C4)c(C)c2cc1C (stereo not drawn) [CBK266351],92.2,
O=C(O)c1ccc(CSc2nnc(-c3ccncc3)o2)cc1 [CBK266352],98.5,
O=C(NC1=NC2CCCCC2N1)c1ccccc1 (stereo not drawn) [CBK266354],103,
O=C1c2ccccc2C(=O)N1CCc1nc2ccccc2c(=O)n1-c1nc2ccccc2s1 [CBK266358],122,
Cc1ccc(S(=O)(=O)NC(C)(C)CSc2ccccn2)cc1 [CBK266360],86.1,
COc1ccc(S(=O)(=O)N2Cc3ccccc3CC2C(=O)Nc2sc3c(c2C#N)CCCC3)cc1 (stereo not drawn) [CBK266363],116,
Cc1cccc(-n2c(CCc3ccccc3)nnc2SCC(=O)c2ccccc2)c1 [CBK266369],94,
CC1CCc2c(sc(NC(=S)NC(=O)c3ccc4c(c3)OCCO4)c2C(N)=O)C1 (stereo not drawn) [CBK266370],101,
COc1ccccc1NC(=O)CCSc1nc(C)cc(C)n1 [CBK266371],103,
Nc1nnc(SC2c3cccc4cccc(c34)C2NS(=O)(=O)c2ccc(Cl)cc2)s1 (stereo not drawn) [CBK266373],99.7,
N#Cc1c(NC(=O)CSc2nnc(-c3ccncc3)o2)sc2c1CCCC2 [CBK266374],99.2,
Cc1ccc(OCC(O)Cn2c(=N)n(CCN3CCCCC3)c3ccccc32)cc1 (stereo not drawn) [CBK266375C],98.9,
CS(=O)(=O)CCC(C(=O)O)N1C(=O)c2ccc(Oc3ccc(Cl)cc3)cc2C1=O (stereo not drawn) [CBK266377],92,
O=C(Nc1sc2c(c1C(=O)NCCc1ccccc1)CCC2)c1sc2ccccc2c1Cl [CBK266379],105,

SMILES,"viability at 28.5 h, 10 µM [%]","viability at 28.5 h, 10 µM (bulk resorufin, single well) [%]"
Cn1c(/C(C#N)=C\c2ccc(-c3ccc(S(N)(=O)=O)cc3)o2)nc2ccccc21 [CBK266380],95,
O=C(CC1Nc2ccccc2NC1=O)Nc1ccc(F)c(Cl)c1 (stereo not drawn) [CBK266381],97,
Cc1cc(C)cc(NC(=O)CC2Sc3ccccc3NC2=O)c1 (stereo not drawn) [CBK266384],94,
COc1ccc(Cc2nc3ccccc3n2CCc2ccccc2)cc1 [CBK266385],95.2,
O=C(CSc1nnc(-c2ccco2)o1)c1ccc2c(c1)OCCO2 [CBK266387],105,
O=C1NC(=O)C(CCc2ccccn2)(Cc2ccc3c(c2)OCO3)C(=O)N1CCc1ccccc1 (stereo not drawn) [CBK266392],,98.7
C=CCn1c(NCc2ccccc2NS(=O)(=O)c2ccc(C)cc2)nc2ccccc21 [CBK266393],111,
CCOC(=O)c1ccc(COc2cccc(-c3cnc4ccccc4n3)c2)cc1 [CBK266395],94.2,
Nc1ccc(Oc2nc(Oc3ccc(N)cc3)c(F)c(Oc3ccc(N)cc3)c2F)cc1 [CBK266397C],110,
O=C(Nc1ccccc1N1CCN(C(=O)c2ccc(Cl)cc2)CC1)c1ccc(-c2cccc([N+](=O)[O-])c2)o1 [CBK266398],93.3,
CC1CCCN(c2ccc(NC(=O)c3cccs3)cc2[N+](=O)[O-])C1 (stereo not drawn) [CBK266402],102,
Cc1ccc(S(=O)(=O)N(CC(=O)Nc2cccnc2)c2cccc([N+](=O)[O-])c2)cc1 [CBK266404],86,
O=C(CCC1CCCC1)Nc1nnc[nH]1 [CBK266406],100,
COc1ccc(-c2nc3cc(C(C)C)ccc3o2)cc1NC(=O)Cc1ccc(Cl)cc1 [CBK266409],96.9,
Cn1cc(C(c2ccccc2OCC(=O)O)c2cn(C)c3ccccc23)c2ccccc21 [CBK266410],112,
C=CCSc1nnc(-c2ccccc2NC(=O)CC)c(O)n1 [CBK266411],115,
Cc1nc(-c2ccccc2)sc1C(=O)C1=C(O)C(=O)N(CCN(C)C)C1c1ccccc1 (stereo not drawn) [CBK266415],100,
O=C(O)Cn1c2ccc(Br)cc2c2nc3ccccc3nc21 [CBK266416],97.1,
NS(=O)(=O)c1ccc(NC2=NC(=O)C(CC(=O)Nc3ccccc3)S2)cc1 (stereo not drawn) [CBK266417],98.2,
COc1cccc(C(=O)C2=C(O)C(=O)N(CCCn3ccnc3)C2c2cccc(F)c2)c1 (stereo not drawn) [CBK266419],107,
COc1cccc2cc(C(=O)C3=C(O)C(=O)N(CCCN4CCOCC4)C3c3ccc(C)cc3)oc12 (stereo not drawn) [CBK266420],106,

SMILES,"viability at 28.5 h, 10 µM [%]","viability at 28.5 h, 10 µM (bulk resorufin, single well) [%]"
COc1cc(CNn2cnnc2S)ccc1OCC(=O)NC(C)(C)C [CBK266429],92.5,
O=C(COc1ccc(S(=O)(=O)NC2CCCC2)cc1)Nc1ccc2c(c1)OCCO2 [CBK266431],101,
O=C(O)c1ccc(NC(=O)c2cn(-c3ccccc3)nc2-c2cc3ccccc3oc2=O)cc1 [CBK266432],99.8,
COc1ccc2c(c1)C(C(C(=O)O)C(=O)O)c1ccccc1O2 (stereo not drawn) [CBK266435],93.8,
Cc1nnc(SCc2nc(N)nc(Nc3ccccc3)n2)s1 [CBK266436],109,
COCCn1c(C)cc(C(=O)CSc2cc(C)c3ccccc3n2)c1C [CBK266437],70.3,
Cc1cc(Cl)c(S(=O)(=O)N2CCN(c3ccc(F)cc3)CC2)cc1OCC(N)=O [CBK266439],98.3,
CCOC(=O)c1c(NC(=O)CSc2ncnc3sc(C)c(C)c23)sc(C)c1C [CBK266440],118,
O=C(C1=C(O)C(=O)N(CCCN2CCOCC2)C1c1ccccn1)c1ccc(Cl)cc1 (stereo not drawn) [CBK266445],112,
CC1(C)CC(=O)C2=C(C1)Nc1ncnn1C2c1ccccc1F (stereo not drawn) [CBK266446],88,
N#Cc1nc(COc2cccc(Cl)c2)oc1NCc1ccncc1 [CBK266447],95.7,
Cc1cc(C)nc(Nc2n[nH]c(-c3cccc4ccccc34)n2)n1 [CBK266451],99.3,
Cc1cc(C)nc(NC2=NC3CCCCC3N2C(=O)Nc2ccc(Cl)c(Cl)c2)n1 (stereo not drawn) [CBK266458],97.5,
CS(=O)(=O)N(CC(=O)NCc1ccccn1)c1cc(Cl)cc(Cl)c1 [CBK266459],106,
O=C(CSc1nnc2ccc3ccccc3n12)Nc1nsc(-c2ccc(Cl)cc2)n1 [CBK266460],99.5,
O=C(O)CSC1c2ccccc2Oc2ccc(F)cc21 (stereo not drawn) [CBK266462],98,
Cc1cc(C)c(C)c(CSCc2nc3ccccc3[nH]2)c1C [CBK266466],98.8,
NS(=O)(=O)c1ccc(NC(=O)c2cc3c(n(-c4ccccc4)c2=O)CCCC3=O)cc1 [CBK266467],115,
N#Cc1nc(COc2ccc(Br)cc2)oc1NC1CC1 [CBK266470],94.6,
CCN1CCN(c2ccc(NC(=O)c3cccc(OCc4ccccc4)c3)cc2)CC1 [CBK266471],95,
Cc1oc(C)c(C(=O)Nc2cccc(C(=O)O)c2)c1C(=O)Nc1cccc(C(=O)O)c1 [CBK266472],108,
